Assay results: publication PMC9026148, “Pre-Clinical Study Evaluating Novel Protein Phosphatase 2A Activators as Therapeutics for Neuroblastoma” (Cancers, 2022)

Assays:
[1] = Plasma levels after oral dose in mice; assay type: in vivo, mouse; settings: male ICR mice, bolus oral dose 50 mg/kg in 1:1:8 DMA:Solutol:water; compared to DBK-1154
Description: Blood aliquots were collected via cardiac puncture (300 µL) sampling from anesthetized mice in tubes coated with lithium heparin, mixed gently, then kept on ice and centrifuged at 2500× g for 15 min at 4 °C, within 1 h of collection. The plasma was harvested and kept frozen at −70 °C until further processing.
The plasma samples were processed using protein precipitation and analyzed by LC-MS/MS. A plasma calibration curve was generated. Aliquots of drug-free plasma were spiked with the test articles at the specified concentration levels. The spiked plasma samples were processed together with the unknown plasma samples using the same procedure. The processed plasma samples were placed in the autosampler until the LC-MS/MS analysis, at which time peak areas were recorded, and the concentrations of the test articles in the unknown plasma samples were determined using the respective calibration curve. The reportable linear range of the assay was determined, along with the lower limit of quantitation (LLOQ).
Plots of plasma concentration of test articles, ATUX-792 and DBK-1154, vs. time are constructed and shown in Supplementary Figure S2.
levels compared to DBK -1154. Serum concentration after bolus oral dose of 50 mg/kg in
1:1:8 DMA:Solutol:water (3 animals per time point). Blood aliquots were collected via car- […]
quantitative bioanalysis. […]

[2] = tested on: MYCN; experiment: Immunoblotting of MYCN in neuroblastoma cells; assay type: cell-based, human; settings: 24 h
Description: Following treatment, cells were lysed on ice using radioimmunoprecipitation (RIPA) buffer with phosphatase inhibitors (P5726, Sigma Aldrich), protease inhibitors (P8340, Sigma Aldrich), and phenylmethanesulfonylfluoride (PMSF, P7626, Sigma Aldrich) for 60 min. Cell lysates were centrifuged at 17,000 rpm for 30 min at 4 °C. Pierce™ BCA Protein Assay (Thermo Fisher Scientific, Inc.) determined protein concentration and proteins were separated by electrophoresis on sodium dodecyl sulfate polyacrylamide (SDS-PAGE) gels. Expected size of the targeted proteins was confirmed using molecular weight markers (Precision Plus Protein Kaleidoscope, Bio-Rad, Hercules, CA, USA). […] Immunoblots were developed with Luminata Classico or Crescendo Western horseradish peroxidase substrate (EMD Millipore, Burlington, MA, USA). Either anti-vinculin or anti-β-actin (as available from manufacturer) served as an internal loading control. We performed densitometry of Western blots using ImageJ software (Ver 1.49, http://imagej.nih.gov/ij (accessed on 9 February 2022).

[3] = SK-N-AS cells, increasing doses
[4] = SK-N-BE(2), SH-EP and WAC2 cells, 0, 10, 20 μM

| SMILES | oral bioavailability / plasma levels [1] | MYCN protein expression [2, 3] | MYCN protein expression [2, 4] |
| --- | --- | --- | --- |
| O=S(=O)(N[C@H]1COC[C@@H](n2c3ccc(Cl)cc3c3cc(Cl)ccc32)[C@@H]1O)c1ccc(OC(F)(F)F)cc1 [ATUX-792] | good oral bioavailability | increase in MYCN expression | decreased expression of MYCN |
| O=S(=O)(NC1CCCC(N2c3ccccc3CCc3ccccc32)C1O)c1ccc(OC(F)(F)F)cc1 (centres unmarked) [DBK-1154] |  | increase in MYCN expression | decreased expression of MYCN |
